# Tests used:
# [1] = tested on: HT-29 tumor cells; assay: Anti-proliferative activity, SRB assay; format: cell-based, human; conditions: Homo sapiens, HT-29, 72 h, 72 hours exposure, read-out: CELLULAR IC50 HT-29
# In short: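 Cells at 3,000-15,000/well, plated 24 h before compound, exposed to a concentration range for 72 hours. Proliferation measured by SRB staining after cold TCA fixation, absorbance at OD570; IC50 estimated from % inhibition versus DMSO-treated cells.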
# [2] = biological target: B-Raf delta1-415 (Homo sapiens, UniProt P15056); assay: B-Raf kinase inhibition (MAPH filter plate, 33P-ATP, MEK1 substrate); conditions: read-out: Biochemical IC50 B-Raf
# Chain of B-Raf delta1-415 (P15056 416-766): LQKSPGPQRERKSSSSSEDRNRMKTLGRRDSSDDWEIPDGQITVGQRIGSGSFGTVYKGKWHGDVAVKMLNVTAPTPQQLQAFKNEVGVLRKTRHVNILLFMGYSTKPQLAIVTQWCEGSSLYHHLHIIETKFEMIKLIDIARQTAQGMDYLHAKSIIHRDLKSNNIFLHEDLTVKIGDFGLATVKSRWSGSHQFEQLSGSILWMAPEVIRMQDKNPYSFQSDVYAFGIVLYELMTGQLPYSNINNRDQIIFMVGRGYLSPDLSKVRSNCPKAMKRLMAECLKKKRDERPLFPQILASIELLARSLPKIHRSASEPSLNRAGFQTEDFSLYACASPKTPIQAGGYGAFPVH
# In short: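 Radiometric filter-binding assay with B-Raf delta1-415 at a level giving 50% turnover, MEK1 substrate and 33P-ATP (12.5 μCi/ml) in 20 mM Mops pH 7.0 with Mg/Mn, 1 h at room temperature. Inhibitor dilution series from 10 μM; EDTA-stopped reactions captured on phosphocellulose filters, counted by scintillation for IC50.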
# [3] = biological target: C-Raf Raf-1 (truncated), active (Homo sapiens, UniProt P04049, Y340D/Y341D); assay: C-Raf kinase inhibition (MAPH assay / IMAP assay); conditions: read-out: Biochemical IC50 C-Raf
# Chain of C-Raf Raf-1 (truncated), active (P04049 306-648 Y340D/Y341D): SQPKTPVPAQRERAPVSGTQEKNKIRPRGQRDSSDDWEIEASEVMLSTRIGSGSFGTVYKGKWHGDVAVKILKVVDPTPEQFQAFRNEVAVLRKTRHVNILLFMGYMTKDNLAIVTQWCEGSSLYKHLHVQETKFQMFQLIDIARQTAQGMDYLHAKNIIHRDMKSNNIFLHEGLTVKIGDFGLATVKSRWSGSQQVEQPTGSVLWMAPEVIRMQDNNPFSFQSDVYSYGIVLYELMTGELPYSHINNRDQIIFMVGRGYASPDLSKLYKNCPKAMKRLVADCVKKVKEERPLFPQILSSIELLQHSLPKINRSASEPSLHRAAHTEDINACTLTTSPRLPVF
# Excerpt: We characterized the in vitro inhibitory activity against protein kinases of compounds of the present invention by determining their IC50 values (see Table 2).
# Kinase: C-Raf Raf-1 (truncated), active (Upstate; cat. no. 14-352)
# Reaction Temperature: room temperature
# Assay Plate: 96 well U bottom plate (Greiner, 650161)
# MultiScreen-PH Plate: 96 well MAPH Filter Plates (Millipore, MAPHNOB50)
# Filter Washing Solution: 0.75% H3PO4
# Scintillation Liquid: Supermix Liquid Scintillator (PerkinElmer, 1200-439)
# Negative Control (C−): 100 mM EDTA, no inhibitor
# Positive Control (C+): no inhibitor
# Reaction Buffer (Final Concentration):
# Final Assay Concentrations:
# Kinase: Use kinase conc. yielding 10% ATP turnover as determined in titration experiment.
# Adenosine 5′-[γ-^33P]triphosphate: 12.5 μCi/ml (Amersham Biosciences, BF1000)
# Substrate: Myelin Basic Protein 57.8 μM (Invitrogen, 13228-010)
# Pipetting Sequence: • 1) Add 10 μl 4-fold concentrated substrate+4-fold concentrated ATP in 3-fold concentrated reaction buffer to each well of assay plate • 2) Add 10 μl […] concentrated inhibitor in 4% DMSO in H2O to each well except to C− and C+ wells (starting point: final inhibitor concentration 10 μM; IC50 determination based on dilution series) • 3) Add 10 μl 4% DMSO in H2O to C− and C+ wells • 4) Add 10 μl 500 mM EDTA in H2O to C− wells • 5) Add 10 μl 50 μCi/ml adenosine 5′-[γ-^33P]triphosphate in H2O to each well • 6) Add 10 μl […] concentrated kinase in Reaction Buffer to each well • 7) Incubate 1 hr at room temperature • 8) Add 10 μl 50 mM EDTA in H2O to each well except to C− wells • 9) Prepare MAPH plates by adding 200 μl 0.75% H3PO4 to each well • 10) Exhaust 0.75% H3PO4 using Millipore vacuum station • 11) Add 60 μl 0.75% H3PO4 to each well of MAPH filter plate • 12) Transfer 30 μl sample per well from assay plate to corresponding well of MAPH filter plate • 13) Incubate 30 min at room temperature • 14) Wash each well of MAPH filter plates 3× with 200 μl 0.75% H3PO4 using Millipore vacuum station • 15) Add 20 μl scintillation liquid to each well of MAPH filter plate • 16) Seal MAPH filter plate • 17) Store MAPH filter plate 30 min in darkness • 18) Quantify radioactivity using scintillation counter (MicroBeta, Perkin-Elmer)
# Reaction Volume: 8.0108 μl
# IMAP Incubation Time: 60 min
# Assay Plate: 384 well U bottom, PP, black, low volume (Corning, 3676)
# Compound Plate: 384 well U bottom, PS (Falcon, 3995)
# IMAP Binding Buffer A: Molecular Devices, R7282
# IMAP Binding Buffer B: Molecular Devices, R7283
# IMAP Binding Reagent: Molecular Devices, R7207
# Negative Control (C−): no kinase, no inhibitor
# Reation buffer: 20 mM Hepes, pH 7.5 • 1 mM DTT • 10 mM MnCl2 • 0.01% Brij35
# Kinase: Kinase conc. yielding 50% substrate turnover as determined in titration experiment • c-Raf (Upstate 14-352)
# Substrate: 5F1-SGQLIDSMANSFV-NH2 400 nM (jpt Peptide Technologies GmbH, Berlin, Germany)
# IMAP Binding Solution: 75% IMAP Binding Buffer A • 25% IMAP Binding Buffer B • IMAP Binding Reagent 1:800
# Pipetting Sequence: • 1) Add 6 μl 1.33-fold concentrated substrate+1.33-fold concentrated ATP in 1-fold concentrated reaction buffer to each well of assay plate • 2) Add 10.8 nl 740-fold concentrated inhibitor in 100% DMSO to each well except to C− and C+ wells using pintool (CyBio, Jena, Germany) (starting point: final inhibitor concentration 10 μM; IC50 determination based on dilution series) • 3) Add 10.8 nl 100% DMSO to C− and C+ wells using pintool • 4) Add 2 μl reaction buffer to C− wells • 5) Add 2 μl 4-fold concentrated kinase in reaction buffer to each well except C− wells • 6) Incubate according to reaction time at room temperature • 7) Add 15 μl IMAP binding solution to each well • 8) Incubate according to IMAP incubation time at room temperature • 9) Measure fluorescence polarization (Analyst GT, Molecular Devices)
SMILES,IC50 [1] [nM],IC50 [2] [nM],IC50 [3] [nM]
"COc1cccc(Nc2ncc3cc(-c4c(C)cccc4C)c(=O)n(OC)c3n2)c1 [Compound 69, 6-(2,6-Dimethylphenyl)-8-methoxy-2-(3-methoxyphenyl)-amino-pyrido[2,3-d]pyrimidin-7-one]",< 1000,< 500,< 100
COn1c(=O)c(-c2cccc(NC(=O)c3ccccc3)c2Cl)cc2cnc(Nc3ccccc3)nc21 [Compound 28],< 1000,> 10000,< 100
"CCOn1c(=O)c(-c2c(F)cccc2Cl)cc2cnc(Nc3ccc(N4CCN(C)CC4)cc3)nc21 [Compound 51, 6-(2-Chloro-6-fluorophenyl)-8-ethoxy-2-(4-(4-methylpiperazino)-phenylamino)-pyrido[2,3-d]pyrimidin-7-one]",< 1000,< 100,< 100
"COn1c(=O)c(-c2c(C)cccc2C)cc2cnc(Nc3cccc(S(N)(=O)=O)c3)nc21 [Compound 72, 6-(2,6-Dimethylphenyl)-8-methoxy-2-(3-sulfamoylphenylamino)-pyrido[2,3-d]pyrimidin-7-one]",< 1000,–,< 100
"COn1c(=O)c(-c2c(Cl)cccc2Cl)cc2cnc(Nc3cc(C(=O)NC[C@@H](O)CO)n(C)c3)nc21 [Compound 117, 6-(2,6-Dichlorophenyl)-2-(5-(2-(R)-2,3-dihydroxyethylamino)carbonyl-1-methyl-pyrrol-3-yl)-amino-8-methoxy-pyrido[2,3-d]pyrimidin-7-one]",< 10000,< 100,–
"COn1c(=O)c(-c2c(Cl)cccc2Cl)cc2cnc(Nc3cccc(-c4nnn[nH]4)c3)nc21 [Compound 130, 6-(2,6-Dichlorophenyl)-8-methoxy-2-(3-tetrazol-5-ylphenyl)-amino-pyrido[2,3-d]pyrimidin-7-one]",> 10000,< 500,–
"COCCN(C)C(=O)c1cc(Nc2ncc3cc(-c4c(Cl)cccc4Cl)c(=O)n(OCC4CC4)c3n2)cn1C [Compound 176, 6-(2,6-Dichlorophenyl)-8-cyclopropylmethyloxy-2-(5-N-(2-methoxyethyl)-N-methyl-aminocarbonyl-1-methyl-pyrrol-3-yl)-amino-pyrido[2,3-d]pyrimidin-7-one]",< 1000,< 500,–
"COCCOn1c(=O)c(-c2cc(NC(=O)c3ccccc3)ccc2Cl)cc2cnc(Nc3ccc(N4CCN(C)CC4)cc3)nc21 [Compound 106, 6-(5-Benzoylamino-2-chloro-phenyl)-8-(2-methoxyethyl)oxy-2-(4-(4-methylpiperazino)-phenylamino)-pyrido[2,3-d]pyrimidin-7-one]",< 1000,< 500,–
COCCOn1c(=O)c(-c2c(F)cccc2Cl)cc2cnc(Nc3ccc(N4CCOCC4)cc3)nc21 [Compound 121],< 1000,< 100,–
"COn1c(=O)c(-c2c(Cl)cccc2Cl)cc2cnc(Nc3ccon3)nc21 [Compound 85, 6-(2,6-Dichlorophenyl)-2-(isoxazol-3-yl)-amino-8-methoxy-pyrido[2,3-d]pyrimidin-7-one]",< 10000,< 500,–
"COn1c(=O)c(-c2c(Cl)cccc2Cl)cc2cnc(Nc3ccc(N4CCCC4)cc3)nc21 [Compound 105, 6-(2,6-Dichlorophenyl)-8-methoxy-2-(4-pyrrolidinophenyl)-amino-pyrido[2,3-d]pyrimidin-7-one]",< 10000,< 500,–
"COc1cc(Nc2ncc3cc(-c4c(F)cccc4Cl)c(=O)n(OC)c3n2)ccc1N1CCNCC1 [Compound 214, 6-(2-Chloro-6-fluorophenyl)-8-methoxy-2-(3-methoxy-4-piperazinophenyl)-amino-pyrido[2,3-d]pyrimidin-7-one]",< 1000,< 100,–
"COCCOn1c(=O)c(-c2c(Cl)cccc2Cl)cc2cnc(Nc3ccc(N4CCN(C(C)C)CC4)cc3)nc21 [Compound 205, 6-(2,6-Dichlorophenyl)-8-(2-methoxyethyl)oxy-2-(4-(4-(1-methylethyl)piperazino)phenyl)-amino-pyrido[2,3-d]pyrimidin-7-one]",< 1000,< 100,–
"COn1c(=O)c(-c2c(Cl)cccc2Cl)cc2cnc(Nc3ccc(C(F)(F)F)c(Cl)c3)nc21 [Compound 133, 2-(3-Chloro-4-trifluoromethylphenyl)-amino-6-(2,6-dichlorophenyl)-8-methoxy-pyrido[2,3-d]pyrimidin-7-one]",< 10000,> 1000,–
"CCN(CC)CCNC(=O)c1cc(Nc2ncc3cc(-c4c(Cl)cccc4Cl)c(=O)n(OC)c3n2)cn1C [Compound 81, 6-(2,6-Dichlorophenyl)-2-(5-(2-diethylaminoethyl)aminocarbonyl-1-methyl-pyrrol-3-yl)-amino-8-methoxy-pyrido[2,3-d]pyrimidin-7-one]",< 1000,< 500,–
"COn1c(=O)c(-c2c(Cl)cccc2Cl)cc2cnc(Nc3ccc(CN4CCC[C@H]4CO)cc3)nc21 [Compound 169, 6-(2,6-Dichlorophenyl)-2-(4-(2-(S)-hydroxymethyl-pyrrolidinomethyl)phenyl)-amino-8-methoxy-pyrido[2,3-d]pyrimidin-7-one]",< 1000,< 500,–
O=c1c(-c2c(F)cccc2Cl)cc2cnc(Nc3ccc(N4CCOCC4)cc3)nc2n1OC[C@H](O)CO [Compound 152],< 1000,< 100,–
"COn1c(=O)c(-c2c(Cl)cccc2Cl)cc2cnc(Nc3ccc(CN4CCOCC4)cc3)nc21 [Compound 100, 6-(2,6-Dichlorophenyl)-8-methoxy-2-(4-morpholinomethylphenyl)-amino-pyrido[2,3-d]pyrimidin-7-one]",< 1000,< 500,–
"COn1c(=O)c(-c2c(Cl)cccc2Cl)cc2cnc(Nc3cccc(CN4CC[C@@H](O)C4)c3)nc21 [Compound 182, 6-(2,6-Dichlorophenyl)-2-(3-(3-(R)-hydroxypyrrolidinomethyl)phenyl)-amino-8-methoxy-pyrido[2,3-d]pyrimidin-7-one]",< 1000,< 500,–
"COCCOn1c(=O)c(-c2c(Cl)cccc2Cl)cc2cnc(Nc3cc(C(=O)N(C)CCOC)n(C)c3)nc21 [Compound 170, 6-(2,6-Dichlorophenyl)-8-(2-methoxyethyl)oxy-2-(5-N-(2-methoxyethyl)-N-methyl-aminocarbonyl-1-methyl-pyrrol-3-yl)-amino-pyrido[2,3-d]pyrimidin-7-one]",< 1000,< 500,–
"COn1c(=O)c(-c2c(Cl)cccc2Cl)cc2cnc(NCc3ccncc3)nc21 [Compound 147, 6-(2,6-Dichlorophenyl)-8-methoxy-2-pyrid-4-ylmethylamino-pyrido[2,3-d]pyrimidin-7-one]",< 10000,< 500,–

# Source: US8518958B2, “Pyrido [2,3-D] pyrimidines and their use as kinase inhibitors” (Forma Therapeutics, Inc., priority 2006, dated 2013)
